Values of other authors in US4127530A, “Novel heneicosapeptides, intermediates therefor and pharmaceutical compositions and methods employing said heneicosapeptides” (priority 1977, dated 1978).

Columns and labels:
[1] = injected directly into the brain of the rat
[2] = test system: partially purified brain opiate receptor sites; conditions: for opioid activity in binding to partially purified brain opiate receptor sites: fragments isolated from the pituitary

Row | Substance | analgesic activity [1] | binding to partially purified brain opiate receptor sites ([2]; natural peptide) | opioid activity in binding to partially purified brain opiate receptor sites [2]
1 | H-Tyr-Gly-Gly-Phe-Met-OH [methionine enkephalin] | weak analgesic agent of short duration | binds stereo-specifically | 
2 | α-endorphin |  |  | potent opioid activity
3 | β-endorphin: β-lipotropin fragment 61-91 |  |  | potent opioid activity
4 | γ-endorphin |  |  | potent opioid activity
